From US20120277436A1, “PHENYLHYDRAZONE DERIVATIVES AND THEIR USE AS PHARMACEUTICALS” (priority 2009, published 2012)

Tests used:
[1] = test system: Male obese Zucker diabetic fatty (ZDF fa/fa) rats; test: Treatment of prediabetic ZDF rats by IP injection (plasma glucose, serum triglycerides); type: in vivo, rat; details: IP injection 10 mg/kg once daily for three weeks, PEG 300
Description: Male obese Zucker diabetic fatty (ZDF fa/fa) rats were used to test the in vivo activity of compound 1. This animal model develops hyperglycemia and insulin resistance.
In this example, six-week-old male prediabetic ZDF rats (Charles River) are provided rat chow and water ad libidum. The obese rats are divided into a control and a treated groups (n=6 per subgroup).
The compound 1 is dissolved in PEG 300 and administrated by IP injection at a dose of 10 mg/kg once daily for a period of three weeks.
Glucose plasma level can be measured by the commercially available kit using the glucose oxydase method (Sigma Chemical Co.).
(§1) Assay of serum triglycerides may be performed enzymatically using a commercially available kit. In summary, the triglycerides are treated with a lipase in order to generate glycerol and fatty acids. In the presence of ATP, the glycerol is transformed by […] into glycerol-3-phosphate. The glycerol-3-phosphate is subsequently transformed into dihydroxyacetone in generating oxygenated water (H202) which may be detected by formation of quinoneimine in the presence of parachlorophenol, amino-4-antipyrin and peroxydase. The intensity of the quinoneimine coloration is subsequently measured at 505 nm. This coloration is proportional to the quantity of triglycerides present in the sample.

[2] = test system: TA100, TA98, TA 102, TA 1537 and TA 1535; test: AMES test, overall conclusion over all strains; type: cell-based, Salmonella typhimuriu; details: absence and presence of S-9
From the text: Gene mutation can be evaluated in vitro, using amino-acid requiring strains of Salmonella typhimuriu. Different protocols for this test have been published (Ames B. N. et al Mutation Res. 1975, 31, 347-364, and Gatehouse D. et al Mutation Res. 1994, 312, 217-233). The principle of this bacterial reverse mutation test is that it detects mutations which revert mutations present in the test strains and restore the functional capability of the bacteria to synthesise an essential amino acid. The revertant bacteria are detected by their ability to grow in the absence of the amino acid required by the parent test strain.
In the present example, the guidelines OECD TG 471 (i.e. AMES Test) was used to detect gene mutation at different doses in the TA100, TA98, TA 102, TA 1537 and TA 1535.
Treatments covering a broad range of concentrations, separated by narrow intervals, were performed both in the absence and presence of metabolic activation (S-9) from Aroclor 1254 induced animals. The compound was formulated in anhydrous analytical grade dimethylsulphoxide (DMSO) and the highest concentration used in was determined following a preliminary cytotoxicity Range-Finder Experiment.

ZDF rats = test: Treatment of prediabetic ZDF rats by oral administration (plasma triglycerides); type: in vivo, rat
Description: as §1
Following the same experiments as in example 2.2, ZDF rats were used to evaluate the effect of the compound on the glycaemia and the plasma level of triglycerides using the experimental protocol described in example 2.2.
The compound was dissolved in PEG 300 and orally administrated to a series of 8 rats for 2 weeks.

## COc1cc(O)c(/C=N/NC(=O)c2ccc3nccn3c2)c(OC)c1 [Compound 1, [1-(2-hydroxy-4,6-dimethoxy-phenyl)-methylidene]-imidazo[1,2-a]pyridine-6-carbohydrazide]
[1]
  circulating triglycerides: significantly reduce
  plasma level of glucose: significantly reduces
[2]
  mutagenic activity in AMES test: does not exhibit mutagenic activity
ZDF rats; administered orally, 2 weeks
  circulating triglycerides: significantly reduce
ZDF rats; orally administrated for 2 weeks, versus untreated rats
  Reduction of plasma triglycerides: 37.4%
ZDF rats; orally administrated in PEG 300 for 2 weeks, ZDF rats (n = 8)
  Triglycerides, plasma level: 1.02 ± 0.1 mM
